Tests used:
PI3Kα = biological target: T1, PI3Kα (Homo sapiens, UniProt P42336); assay: PI3 Kinase alpha TR-FRET assay; type: biochemical
T1 construct: made in house; host or cells: SF9 cells
Description: Compound inhibition for PI3Kα was determined in a homogeneous TR-FRET assay using a PI3Kα assay kit (Millipore, US, Catalog #33-016). The PI3 kinase catalyzes phosphorylation of […] (PIP2) to phosphatidylinositol 3,4,5-trisphosphate (PIP3) in the presence of ATP and Mg^2+. The PIP3 product is detected by displacement of biotin-PIP3 from an energy transfer complex consisting of Europium labeled anti-GST monoclonal antibody, a GST-tagged pleckstrin homology (PH) domain, biotinylated PIP3 and Streptavidin-Allophycocyanin (APC). Excitation of Europium in the complex results in an energy transfer to the APC and a fluorescence emission at 665 nm.
Compounds tested were dissolved in DMSO and directly distributed into 384-well plates at a volume of 0.5 μL. P110/P85a/PIP2 mixture (14.5 μL) was added to compound wells and incubated for 30 min at rt […]. P110/P85a was expressed in SF9 cells and purified in-house. 5 ng P110/P85a was used in the assay. The kinase reaction was started by the addition of ATP. The assay concentrations of both PIP2 and ATP were 40 μM. The reaction mixture was incubated for 30 min and was terminated by the addition of stop mix and detection mix. Fluorescence was measured at 615 and 665 nm upon excitation at 340 nm in a Victor V5 fluorometer (Perkin Elmer, US). The fluorescence emission ratio at 665 to 615 nm, proportional to the kinase activity, was plotted against the compound concentration to generate dose-response curves and IC50 values were determined.

pERK in A375 cells = assay: In Cell Western (ICW) assay, pERK in A375 cells; type: cell-based; conditions: Homo sapiens, A-375, 3 h treatment
How it was run: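 RKO or A375 cells were exposed to compounds for 3 h at 37 °C, then fixed and stained in-cell with antibodies to pERK1/2 (T202/Y204), pS6RP or pAKT T308, followed by a Eu-labelled secondary. Time-resolved fluorescence (340/615 nm) was normalized to Hoechst, and IC50 values were fitted sigmoidally against DMSO as 0% inhibition.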

B-RAFV600E = biological target: T2, B-RAFV600E (Homo sapiens, UniProt P15056, V600E); assay: B-RAFV600E radiometric assay; type: biochemical; conditions: read-out: Kinase assay B-Raf
T2 construct: purchased Millipore, USA 14-557
How it was run: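 B-RAFV600E was preincubated 45 min at rt with compound in 1% DMSO. MEK-K97M (0.5 μg), 5 μM final cold ATP and [γ-32P]ATP were then added for 2 h at rt. Phosphorylated MEK was captured on P81 paper and scintillation-counted; IC50 came from a sigmoidal dose-response fit.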

A375 cells = assay: XTT assay for cell viability, A375 cells; type: cell-based; conditions: Homo sapiens, A-375, 72 h
How it was run: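 RKO and A375 cells seeded at 1000-2000/well overnight, then exposed to compound for 72 h at 37° C., 5% CO2. XTT (1 mg/ml)/PMS (25 μM) added for 2-3 h; absorbance at 450 nm. Growth relative to DMSO control (100%); GI50 from sigmoidal dose-response fit.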

RKO cells = assay: XTT assay for cell viability, RKO cells; type: cell-based; conditions: Homo sapiens, 72 h
Description: Cell lines (A375 ATCC No. CRL-1619, A2058 ATCC No. CRL-11147 and RKO ATCC No. CRL-2577, American Type Culture Collection (ATCC), Manassas Va.) once attaining ˜80% confluency were trypsinized, centrifuged and resuspended in fresh media. Cells (1000-2000/per well) were seeded in 96-well plate and incubated over-night at 37° C. in a 5% CO2 incubator. Compound dilutions were prepared in 100% DMSO followed by dilutions in the respective media. The cells were treated with NCEs for 72 h at 37° C. in 5% CO2 incubator. After 72 h, freshly prepared XTT (1 mg/ml)/PMS (25 μM) solution was added, incubated for 2 to 3 h at 37° C. and the absorbance was measured at 450 nm using an ELISA plate reader. Keeping DMSO control as 100%, the effect of the compound to inhibit the cell proliferation was calculated and the GI50 values were determined using sigmoidal dose response curve fit in GraphPad Prism® v5 software.

mTOR kinase = biological target: T3, mTOR kinase (Homo sapiens, UniProt P42345); assay: mTOR kinase TR-FRET assay; type: biochemical
T3 construct: purchased Millipore, US
How it was run: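 TR-FRET with ULight-p70 S6K (Thr 389) peptide (50 nM) and 20 μM ATP in 50 mM HEPES pH 7.5, 1 mM EGTA, 3 mM MnCl2; compound pre-incubated with enzyme before substrate addition, reaction at rt, EDTA-stopped. Eu anti-phospho antibody read 665/615 nm; IC50 from sigmoidal dose-response fit.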

T2 sequence (P15056 416-766 V600E limits assumed): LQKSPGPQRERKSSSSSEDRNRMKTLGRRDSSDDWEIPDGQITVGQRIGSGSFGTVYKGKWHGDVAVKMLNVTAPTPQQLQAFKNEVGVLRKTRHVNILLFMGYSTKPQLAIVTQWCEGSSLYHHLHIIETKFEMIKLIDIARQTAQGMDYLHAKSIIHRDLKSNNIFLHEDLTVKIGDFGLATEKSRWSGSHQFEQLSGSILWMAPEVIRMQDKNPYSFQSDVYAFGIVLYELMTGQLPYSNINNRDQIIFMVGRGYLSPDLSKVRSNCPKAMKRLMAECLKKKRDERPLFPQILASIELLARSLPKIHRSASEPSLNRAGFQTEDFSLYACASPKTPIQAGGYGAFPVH
T3 sequence (P42345 1362-2549 limits assumed): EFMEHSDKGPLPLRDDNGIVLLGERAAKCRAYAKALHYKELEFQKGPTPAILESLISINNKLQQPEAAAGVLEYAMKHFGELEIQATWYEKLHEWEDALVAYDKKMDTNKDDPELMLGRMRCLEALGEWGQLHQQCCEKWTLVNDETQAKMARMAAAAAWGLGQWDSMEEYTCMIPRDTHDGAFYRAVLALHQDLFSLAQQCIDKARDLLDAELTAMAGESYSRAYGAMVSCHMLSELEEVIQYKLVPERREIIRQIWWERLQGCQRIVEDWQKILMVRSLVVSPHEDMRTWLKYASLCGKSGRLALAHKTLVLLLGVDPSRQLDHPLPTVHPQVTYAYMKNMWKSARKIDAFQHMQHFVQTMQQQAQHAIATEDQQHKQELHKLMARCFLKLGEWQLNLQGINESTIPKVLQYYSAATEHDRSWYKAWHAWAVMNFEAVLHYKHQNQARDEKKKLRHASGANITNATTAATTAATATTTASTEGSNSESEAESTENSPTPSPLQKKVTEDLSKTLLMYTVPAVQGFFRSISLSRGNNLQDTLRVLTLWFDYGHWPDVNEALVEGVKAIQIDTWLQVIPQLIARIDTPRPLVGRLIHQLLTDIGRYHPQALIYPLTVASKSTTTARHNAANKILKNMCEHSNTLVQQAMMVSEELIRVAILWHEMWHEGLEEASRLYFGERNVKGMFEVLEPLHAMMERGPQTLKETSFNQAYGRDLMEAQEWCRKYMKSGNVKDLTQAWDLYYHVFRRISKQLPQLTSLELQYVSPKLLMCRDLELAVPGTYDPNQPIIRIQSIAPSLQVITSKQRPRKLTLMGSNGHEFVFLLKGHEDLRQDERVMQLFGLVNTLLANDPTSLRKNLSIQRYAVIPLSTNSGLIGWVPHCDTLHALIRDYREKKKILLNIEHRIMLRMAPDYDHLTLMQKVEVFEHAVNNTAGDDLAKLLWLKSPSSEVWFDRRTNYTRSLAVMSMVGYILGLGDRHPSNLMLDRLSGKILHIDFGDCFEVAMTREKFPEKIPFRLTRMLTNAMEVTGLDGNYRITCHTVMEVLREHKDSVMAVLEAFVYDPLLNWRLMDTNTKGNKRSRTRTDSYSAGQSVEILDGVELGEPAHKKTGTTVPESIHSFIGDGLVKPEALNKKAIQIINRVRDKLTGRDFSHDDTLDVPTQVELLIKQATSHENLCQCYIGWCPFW
T1 sequence (P42336 whole entry, species assumed): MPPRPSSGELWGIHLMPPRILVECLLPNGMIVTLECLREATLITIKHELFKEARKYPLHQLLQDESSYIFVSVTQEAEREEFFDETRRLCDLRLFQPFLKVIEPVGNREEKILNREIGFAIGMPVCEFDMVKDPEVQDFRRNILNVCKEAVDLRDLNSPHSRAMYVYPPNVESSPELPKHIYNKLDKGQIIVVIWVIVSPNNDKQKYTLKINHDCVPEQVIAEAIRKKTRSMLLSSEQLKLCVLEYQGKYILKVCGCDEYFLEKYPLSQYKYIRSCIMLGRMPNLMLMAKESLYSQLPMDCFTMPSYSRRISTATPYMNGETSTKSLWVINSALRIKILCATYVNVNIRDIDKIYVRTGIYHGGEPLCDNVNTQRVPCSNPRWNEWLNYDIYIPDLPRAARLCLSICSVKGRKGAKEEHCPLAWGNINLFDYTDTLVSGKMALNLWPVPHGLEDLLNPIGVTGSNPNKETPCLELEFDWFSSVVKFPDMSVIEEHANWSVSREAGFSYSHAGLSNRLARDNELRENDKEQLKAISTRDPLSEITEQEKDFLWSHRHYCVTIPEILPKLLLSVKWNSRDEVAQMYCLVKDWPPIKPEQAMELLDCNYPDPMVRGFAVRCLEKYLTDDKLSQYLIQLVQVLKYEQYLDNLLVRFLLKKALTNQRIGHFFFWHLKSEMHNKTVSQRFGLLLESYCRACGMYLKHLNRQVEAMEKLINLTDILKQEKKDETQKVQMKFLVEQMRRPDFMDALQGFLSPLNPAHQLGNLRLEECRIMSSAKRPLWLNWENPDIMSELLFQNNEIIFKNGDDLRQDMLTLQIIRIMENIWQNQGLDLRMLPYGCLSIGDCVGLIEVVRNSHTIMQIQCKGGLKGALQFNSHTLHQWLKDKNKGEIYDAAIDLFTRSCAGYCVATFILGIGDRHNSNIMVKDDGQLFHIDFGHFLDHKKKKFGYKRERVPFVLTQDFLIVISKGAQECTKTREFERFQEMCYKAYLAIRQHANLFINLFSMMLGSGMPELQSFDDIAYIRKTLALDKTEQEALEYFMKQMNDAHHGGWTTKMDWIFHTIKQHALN
T1 sequence (P27986 whole entry partner, species assumed): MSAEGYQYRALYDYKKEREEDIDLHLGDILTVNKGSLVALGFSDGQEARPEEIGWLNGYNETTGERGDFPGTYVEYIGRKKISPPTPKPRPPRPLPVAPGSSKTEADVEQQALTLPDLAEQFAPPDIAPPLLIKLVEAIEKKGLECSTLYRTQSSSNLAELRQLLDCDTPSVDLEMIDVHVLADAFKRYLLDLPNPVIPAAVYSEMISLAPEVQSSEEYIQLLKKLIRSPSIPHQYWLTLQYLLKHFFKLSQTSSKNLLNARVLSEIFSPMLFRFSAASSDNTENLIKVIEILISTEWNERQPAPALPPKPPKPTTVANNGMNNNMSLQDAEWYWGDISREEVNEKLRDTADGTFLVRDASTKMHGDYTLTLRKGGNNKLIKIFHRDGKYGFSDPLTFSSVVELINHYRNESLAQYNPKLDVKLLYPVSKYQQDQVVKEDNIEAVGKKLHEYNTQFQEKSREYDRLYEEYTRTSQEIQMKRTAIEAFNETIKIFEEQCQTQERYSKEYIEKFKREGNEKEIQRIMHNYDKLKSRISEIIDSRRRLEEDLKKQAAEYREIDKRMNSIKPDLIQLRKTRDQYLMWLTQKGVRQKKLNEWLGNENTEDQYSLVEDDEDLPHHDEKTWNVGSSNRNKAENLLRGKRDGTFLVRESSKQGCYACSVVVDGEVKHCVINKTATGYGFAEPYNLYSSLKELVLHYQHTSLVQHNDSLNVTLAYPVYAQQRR

Compound | IC50 (PI3Kα) [nM] | IC50 (pERK in A375 cells) [nM] | IC50 (B-RAFV600E) [nM] | IC50 (A375 cells) [nM] | IC50 (mTOR kinase) [nM] | IC50 (RKO cells) [nM]
CCCS(=O)(=O)Nc1cccc(-c2cc(OC)c3nc(-c4cccc5[nH]ncc45)nc(N4CCOCC4)c3c2)c1F [Example 2, N-(3-(2-(1H-indazol-4-yl)-8-methoxy-4-morpholinoquinazolin-6-yl)-2-fluorophenyl) propane-1-sulfonamide] | 100 to 1000 | 100 to 1000 | 1 to 100 | 100 to 1000 |  | 
CCCS(=O)(=O)Nc1cccc(-c2cc(OC)c3nc(-c4ccc(NCCN)nc4)nc(N4CCOCC4)c3c2)c1F [Example 3] | 100 to 1000 | 1 to 100 | 1 to 100 | 1000 to 10000 |  | 
CCCS(=O)(=O)Nc1cccc(-c2cc(C)c3nc(-c4ccc(N)nc4)nc(N4CCOCC4)c3c2)c1F [Example 8, N-(3-(2-(6-aminopyridin-3-yl)-8-methyl-4-morpholinoquinazolin-6-yl)-2-fluorophenyl)propane-1-sulfonamide] | 100 to 1000 | 100 to 1000 | 100 to 1000 | 100 to 1000 |  | 100 to 1000
CCCS(=O)(=O)Nc1cccc(-c2cc(OC)c3nc(-c4cnc(N)c(C)c4)nc(N4CCOCC4)c3c2)c1F [Example 26, N-(3-(2-(6-amino-5-methylpyridin-3-yl)-8-methoxy-4-morpholinoquinazolin-6-yl)-2-fluorophenyl)propane-1-sulfonamide] | 100 to 1000 | 100 to 1000 | 100 to 1000 | 100 to 1000 |  | 
COc1cc(-c2cccc(NS(=O)(=O)CCCF)c2F)cc2c(N3CCOCC3)nc(-c3cnc(N)cc3C(F)(F)F)nc12 [Example 36, N-(3-(2-(6-amino-4-(trifluoromethyl)pyridin-3-yl)-8-methoxy-4-morpholinoquinazolin-6-yl)-2-fluorophenyl)-3-fluoropropane-1-sulfonamide] | 100 to 1000 | 1 to 100 | 1 to 100 | 100 to 1000 |  | 1000 to 10000
COc1cc(-c2cccc(NS(=O)(=O)CCCF)c2F)cc2c(N3CCOCC3)nc(-c3cccc4[nH]ncc34)nc12 [Example 37, N-(3-(2-(1H-indazol-4-yl)-8-methoxy-4-morpholinoquinazolin-6-yl)-2-fluorophenyl)-3-fluoropropane-1-sulfonamide] | 100 to 1000 | 1 to 100 | 1 to 100 | 100 to 1000 |  | 1000 to 10000
Nc1ccc(-c2nc(N3CCOCC3)c3cc(-c4cccc(NS(=O)(=O)CCCF)c4F)cc(OC4CCCC4)c3n2)cn1 [Example 53, N-(3-(2-(6-aminopyridin-3-yl)-8-(cyclopentyloxy)-4-morpholinoquinazolin-6-yl)-2-fluorophenyl)-3-fluoropropane-1-sulfonamide] |  | 1 to 100 | 1 to 100 | 1 to 100 | 1 to 100 | 100 to 1000
C[C@@H]1COCCN1c1nc(-c2ccc(N)nc2)nc2c(OC3CCCC3)cc(-c3cccc(NS(=O)(=O)CCCF)c3F)cc12 [Example 62, (R)-N-(3-(2-(6-aminopyridin-3-yl)-8-(cyclopentyloxy)-4-(3-methylmorpholino)quinazolin-6-yl)-2-fluorophenyl)-3-fluoropropane-1-sulfonamide] |  | 1 to 100 | 1 to 100 | 1 to 100 | 1 to 100 | 100 to 1000
COc1cc(-c2c(F)ccc(NS(=O)(=O)CCCF)c2F)cc2c(N3CCOCC3)nc(-c3cccc4[nH]ncc34)nc12 [Example 81, N-(3-(2-(1H-indazol-4-yl)-8-methoxy-4-morpholinoquinazolin-6-yl)-2,4-difluorophenyl)-3-fluoropropane-1-sulfonamide] | 100 to 1000 | 1 to 100 | 1 to 100 | 100 to 1000 |  | 
Cc1cc(-c2cccc(NS(=O)(=O)CCCF)c2F)cc2c(N3CCOCC3)nc(-c3cccc4[nH]ncc34)nc12 [Example 118, N-(3-(2-(1H-indazol-4-yl)-8-methyl-4-morpholinoquinazolin-6-yl)-2-fluorophenyl)-3-fluoropropane-1-sulfonamide] |  |  | 1 to 100 | 100 to 1000 | 100 to 1000 | 1000 to 10000

Continued, in another order:

IC50 (PI3Kα) [nM] | IC50 (pERK in A375 cells) [nM] | IC50 (B-RAFV600E) [nM] | IC50 (A375 cells) [nM] | IC50 (mTOR kinase) [nM] | Compound | IC50 (RKO cells) [nM]
 | 1 to 100 | 1 to 100 | 1 to 100 | 1 to 100 | CNc1ccc(-c2nc(N3CCOCC3)c3cc(-c4cccc(NS(=O)(=O)CCCF)c4F)cc(OC)c3n2)cn1 [Example 50, 3-fluoro-N-(2-fluoro-3-(8-methoxy-2-(6-(methylamino)pyridin-3-yl)-4-morpholinoquinazolin-6-yl)phenyl)propane-1-sulfonamide] | 100 to 1000
 | 1 to 100 | 1 to 100 | 1 to 100 | 1 to 100 | CNc1ncc(-c2nc(N3CCOCC3)c3cc(-c4cccc(NS(=O)(=O)CCCF)c4F)cc(OC)c3n2)cn1 [Example 51, 3-fluoro-N-(2-fluoro-3-(8-methoxy-2-(2-(methylamino)pyrimidin-5-yl)-4-morphoIinoquinazolin-6-yl)phenyl)propane-1-sulfonamide] | 100 to 1000
100 to 1000 | 1 to 100 | 1 to 100 | 1000 to 10000 |  | O=S(=O)(CCCF)Nc1cccc(-c2ccc3nc(-c4cnc(NCCCO)nc4)nc(N4CCOCC4)c3n2)c1F [Example 110, 3-fluoro-N-(2-fluoro-3-(2-(2-((3-hydroxypropyl)amino)pyrimidin-5-yl)-4-morpholinopyrido[3,2-d]pyrimidin-6-yl)phenyl)propane-1-sulfonamide] | 
 | 1 to 100 | 1 to 100 | 100 to 1000 | 100 to 1000 | CC(C)Nc1ccc(-c2nc(N3CCOCC3)c3nc(-c4cccc(NS(=O)(=O)CCCF)c4F)ccc3n2)cn1 [Example 114, 3-fluoro-N-(2-fluoro-3-(2-(6-(isopropylamino)pyridin-3-yl)-4-morpholinopyrido[3,2-d]pyrimidin-6-yl)phenyl)propane-1-sulfonamide] | 100 to 1000
 | 1 to 100 | 1 to 100 | 100 to 1000 | 1 to 100 | Cc1cc(-c2cccc(NS(=O)(=O)CCCF)c2F)cc2c(N3CCOCC3)nc(-c3ccc(N)nc3)nc12 [Example 117, N-(3-(2-(6-aminopyridin-3-yl)-8-methyl-4-morpholinoquinazolin-6-yl)-2-fluorophenyl)-3-fluoropropane-1-sulfonamide] | 1000 to 10000
